Legend:
4T1 cells [1] = assay: Monolayer growth inhibition, Alamar blue assay; format: cell-based; settings: Mus musculus; 4T1 (TNBC), 5 days, single dose on day 1
Excerpt: (§1) In all instances a single dose was given on day 1 of the experiment.

HCC1143 cells [2] = assay: Monolayer growth inhibition, Alamar blue assay; format: cell-based; settings: Homo sapiens; HCC1143 (TNBC), 5 days, single dose on day 1
Excerpt: as §1

HCC1937 cells [3] = assay: Monolayer growth inhibition, Alamar blue assay; format: cell-based; settings: Homo sapiens; HCC1937 (TNBC, BRCA Mutant), 5 days, single dose on day 1
Excerpt: as §1

JIMT-1 cells [4] = assay: Monolayer growth inhibition, Alamar blue assay; format: cell-based; settings: Homo sapiens; JIMT-1 (HER2), 5 days, single dose on day 1
Excerpt: as §1

MDA-MB-231 cells [5] = assay: Monolayer growth inhibition, Alamar blue assay; format: cell-based; settings: Homo sapiens; MDA-MB-231 (TNBC), 5 days, single dose on day 1
Excerpt: as §1

MDA-MB-435 cells [6] = assay: Monolayer growth inhibition, Alamar blue assay; format: cell-based; settings: Homo sapiens; MDA-MB-435 (Melanoma), 5 days, single dose on day 1
Excerpt: as §1

MDA-MB-468 cells [7] = assay: Monolayer growth inhibition, Alamar blue assay; format: cell-based; settings: Homo sapiens; MDA-MB-468 (TNBC), 5 days, single dose on day 1
Excerpt: as §1

PC3 cells [8] = assay: Monolayer growth inhibition, Alamar blue assay; format: cell-based; settings: Homo sapiens, PC-3; PC3 (Prostate), 5 days, single dose on day 1
Excerpt: as §1

SUM149 cells [9] = assay: Monolayer growth inhibition, Alamar blue assay; format: cell-based; settings: Homo sapiens; SUM149 (TNBC, BRCA Mutant), 5 days, single dose on day 1
Excerpt: as §1

SUM149-PTXR cells [10] = assay: Monolayer growth inhibition, Alamar blue assay; format: cell-based, Human; settings: Homo sapiens; SUM149-PTXR (TNBC, BRCA Mutant), 5 days, single dose on day 1
Excerpt: as §1

T47D cells [11] = assay: Monolayer growth inhibition, Alamar blue assay; format: cell-based, Human; settings: Homo sapiens; T47D (ER/PR), 5 days, single dose on day 1
Excerpt: as §1

All cell lines [12] = assay: Monolayer growth inhibition, Alamar blue assay, range over all cell lines; format: cell-based; settings: 120 h; range of IC50 over all cell lines of the table; read-out: IC50 Values - Alamar Blue (5 Days), Range, All
Excerpt: as §1

HCC1937 cells [13] = assay: Monolayer growth inhibition, crystal violet assay; format: cell-based; settings: Homo sapiens; HCC1937 (TNBC, BRCA Mutant), 5 days, single dose on day 1
Excerpt: (§2) In all instances a single dose was given on day 1 of the experiment. […] Complete (100%) growth suppression was achievable with several of the compounds in multiple different cell lines.

JIMT-1 cells [14] = assay: Monolayer growth inhibition, crystal violet assay; format: cell-based; settings: Homo sapiens; JIMT-1 (HER2), 5 days, single dose on day 1
Excerpt: as §2

MDA-MB-468 cells [15] = assay: Monolayer growth inhibition, crystal violet assay; format: cell-based; settings: Homo sapiens; MDA-MB-468 (TNBC), 5 days, single dose on day 1
Excerpt: as §2

T47D cells [16] = assay: Monolayer growth inhibition, crystal violet assay; format: cell-based; settings: Homo sapiens; T47D (ER/PR), 5 days, single dose on day 1
Excerpt: as §2

4T1 cells [17] = assay: Monolayer growth inhibition, crystal violet assay; format: cell-based; settings: Mus musculus; 4T1 (TNBC), 5 days, single dose on day 1
Excerpt: as §1

HCC1143 cells [18] = assay: Monolayer growth inhibition, crystal violet assay; format: cell-based; settings: Homo sapiens; HCC1143 (TNBC), 5 days, single dose on day 1
Excerpt: as §1

MDA-MB-231 cells [19] = assay: Monolayer growth inhibition, crystal violet assay; format: cell-based; settings: Homo sapiens; MDA-MB-231 (TNBC), 5 days, single dose on day 1
Excerpt: as §1

MDA-MB-435 cells [20] = assay: Monolayer growth inhibition, crystal violet assay; format: cell-based; settings: Homo sapiens; MDA-MB-435 (Melanoma), 5 days, single dose on day 1
Excerpt: as §1

PC3 cells [21] = assay: Monolayer growth inhibition, crystal violet assay; format: cell-based; settings: Homo sapiens, PC-3; PC3 (Prostate), 5 days, single dose on day 1
Excerpt: as §1

SUM149 cells [22] = assay: Monolayer growth inhibition, crystal violet assay; format: cell-based; settings: Homo sapiens; SUM149 (TNBC, BRCA Mutant), 5 days, single dose on day 1
Excerpt: as §1

SUM149-PTXR cells [23] = assay: Monolayer growth inhibition, crystal violet assay; format: cell-based; settings: Homo sapiens; SUM149-PTXR (TNBC, BRCA Mutant), 5 days, single dose on day 1
Excerpt: as §1

All cell lines [24] = assay: Monolayer growth inhibition, crystal violet assay, range over all cell lines; format: cell-based; settings: 120 h; range of IC50 over all cell lines of the table; read-out: IC50 Values - Crystal Violet (5 Days), Range, All
Excerpt: as §2

Row | Structure (SMILES) | IC50 (4T1 cells [1]) [µM] | IC50 (HCC1143 cells [2]) [µM] | IC50 (HCC1937 cells [3]) [µM] | IC50 (JIMT-1 cells [4]) [µM] | IC50 (MDA-MB-231 cells [5]) [µM] | IC50 (MDA-MB-435 cells [6]) [µM] | IC50 (MDA-MB-468 cells [7]) [µM] | IC50 (PC3 cells [8]) [µM] | IC50 (SUM149 cells [9]) [µM] | IC50 (SUM149-PTXR cells [10]) [µM] | IC50 (T47D cells [11]) [µM] | IC50 (All cell lines [12]) [µM] | IC50 (HCC1937 cells [13]) [µM] | IC50 (JIMT-1 cells [14]) [µM] | IC50 (MDA-MB-468 cells [15]) [µM] | IC50 (T47D cells [16]) [µM] | IC50 (4T1 cells [17]) [µM] | IC50 (HCC1143 cells [18]) [µM] | IC50 (MDA-MB-231 cells [19]) [µM] | IC50 (MDA-MB-435 cells [20]) [µM] | other results
1 | C[C@@H]1CNC(=O)c2cc3ccc(C(=O)Nc4cnn(Cc5ccccc5N)c4)nc3n21 [Compound 17, (R)—N-(1-(2-aminobenzyl)-1H-pyrazol-4-yl)-9-methyl-6-oxo-6,7,8,9-tetrahydropyrido[3′,2′:4,5]pyrrolo[1,2-a]pyrazine-2-carboxamide] | 3.8 ± 1.7 | 5 ± 1.7 | 6.8 ± 1.3 | 12.6 ± 5.9 | 10.3 ± 0.7 | 1.2 ± 1 | 2.1 ± 1.1 | 6 ± 3.2 | 8.3 ± 4.9 | 4.2 ± 1.5 | 5.7 ± 2.1 | 1.2 to 12.6 | 7.3 ± 3.2 | 7.4 ± 2.5 | 1.6 ± 0.7 | 6.7 ± 1.6 | 2 ± 0.6 | 8.9 ± 3.2 | 5.1 ± 2 | 1 ± 0.3 | IC50 (PC3 cells [21]): 2.7 ± 1.2 µM; IC50 (SUM149 cells [22]): 5.3 ± 2.2 µM; IC50 (SUM149-PTXR cells [23]): 5.2 ± 0.6 µM; IC50 (All cell lines [24]): 1 to 8.9 µM
2 | C[C@@H]1CNC(=O)c2cc3ccc(NC(=O)c4cnn(Cc5cccc(N)c5)c4)nc3n21 [Compound 19, (R)-1-(3-aminobenzyl)-N-(9-methyl-6-oxo-6,7,8,9-tetrahydropyrido[3′,2′:4,5]pyrrolo[1,2-a]pyrazin-2-yl)-1H-pyrazole-4-carboxamide] | 20.6 ± 2.5 | 11.5 ± 3.6 | 16.6 ± 11.5 | 37.3 ± 9 | 25.6 ± 1.5 | 10.5 ± 2.2 | 14.7 ± 4.1 | 17.1 ± 8.7 | 15.8 ± 6.4 | 14.1 ± 4.3 | 13.5 ± 4.6 | 10.5 to 37.3 | 19.9 ± 8.7 | 34 ± 12.8 | 7.4 ± 1 | 7.7 ± 1.5 | 15.8 ± 4.8 | 13.8 ± 4.3 | 17.2 ± 1.9 | 10.3 ± 3.5 | IC50 (PC3 cells [21]): 14.9 ± 6.6 µM; IC50 (SUM149 cells [22]): 11.1 ± 3.9 µM; IC50 (SUM149-PTXR cells [23]): 13 ± 1.3 µM; IC50 (All cell lines [24]): 7.4 to 34 µM

Reference: US10081632B2, “Substituted tetrahydropyrido[3′,2′:4,5]pyrrolo[1,2-α]pyrazine-2-carboxamides as RSK inhibitors” (Phoenix Molecular Designs, priority 2016, dated 2018)
